# From ChEMBL document CHEMBL3525982, “Metabolism and pharmacokinetics of indacaterol in humans” (Drug Metab Dispos, 2012)
# Tests used:
# [1] = Drug recovery in healthy human urine treated with [14C]indacaterol at 800 ug, po as single dose after 168 hrs postdose by liquid scintillation counting; format: ADME, organism-based; settings: in vivo
# Serum [2] = assay: AUC (0 to 24 hrs) in healthy human serum treated with [14C]indacaterol at 800 ug, po as single dose by HPLC analysis; format: ADME, organism-based; design: time < 24 hr, dose 800 ug, route oral; settings: in vivo
# [3] = Drug recovery in healthy human feces treated with [14C]indacaterol at 800 ug, po as single dose after 168 hrs postdose by liquid scintillation counting; format: ADME, organism-based; settings: in vivo
# Serum [4] = assay: Drug level in healthy human serum treated with [14C]indacaterol at 800 ug, po as single dose at 2 hrs by HPLC analysis; format: ADME, organism-based; settings: in vivo
# Serum [5] = assay: Drug level in healthy human serum treated with [14C]indacaterol at 800 ug, po as single dose at 2 hrs by HPLC analysis relative to total radioactivity; format: ADME, organism-based; settings: in vivo
# Serum [6] = assay: AUC (0 to 24 hrs) in healthy human serum treated with [14C]indacaterol at 800 ug, po as single dose by HPLC analysis relative to total radioactivity; format: ADME, organism-based; settings: in vivo
# Serum [7] = assay: Drug metabolism in healthy human serum treated with [14C]indacaterol at 800 ug, po as single dose by HPLC analysis; format: ADME, organism-based; settings: in vivo
# [8] = Drug recovery in healthy human feces at 800 ug, po as single dose measured after 168 hrs postdose by liquid scintillation counting; format: ADME, organism-based; settings: in vivo
# Homo sapiens [9] = assay: Cmax in healthy human assessed as total radioactivity at 800 ug, po as single dose by LC-MS/MS analysis; format: ADME, organism-based; design: dose 800 ug, route oral; settings: in vivo
# Serum [10] = assay: AUC (0 to 24 hrs) in healthy human serum at 800 ug, po as single dose by HPLC analysis relative to total radioactivity; format: ADME, organism-based; settings: in vivo
# Serum [11] = assay: Drug metabolism in healthy human serum assessed as 2-(5,6-diethyl-2,3-dihydro-1H-inden-2-ylamino)acetic acid formation at 800 ug, po as single dose by HPLC analysis; format: ADME, organism-based; settings: in vivo
# Serum [12] = assay: Drug level in healthy human serum at 800 ug, po as single dose at 2 hrs by HPLC analysis; format: ADME, organism-based; settings: in vivo
# Serum [13] = assay: AUC (0 to 24 hrs) in healthy human serum at 800 ug, po as single dose by HPLC analysis; format: ADME, organism-based; design: time < 24 hr, dose 800 ug, route oral; settings: in vivo
# Serum [14] = assay: Drug metabolism in healthy human serum assessed as 5,6-diethyl-2,3-dihydro-1H-inden-2-amine formation at 800 ug, po as single dose by HPLC analysis; format: ADME, organism-based; settings: in vivo
# Serum [15] = assay: Drug metabolism in healthy human serum assessed as (2S,3S,4S,5R,6R)-6-((5,6-diethyl-2,3-dihydro-1H-inden-2-yl)((S)-2-hydroxy-2-(8-hydroxy-2-oxo-1,2-dihydroquinolin-5-yl)ethyl)amino)-3,4,5-trihydroxytetrahydro-2H-pyran-2-carboxylic acid formation at 800 ug, po as single dose by HPLC analysis; format: ADME, organism-based; settings: in vivo
# Homo sapiens [16] = assay: AUC (0 to last) in healthy human assessed as total radioactivity at 800 ug, po as single dose by LC-MS/MS analysis; format: ADME, organism-based, Plasma; settings: in vivo
# [17] = Drug recovery in healthy human urine assessed as total radioactivity at 800 ug, po as single dose after 168 hrs postdose by liquid scintillation counting; format: ADME, organism-based; settings: in vivo
# Serum [18] = assay: Drug level in healthy human serum at 800 ug, po as single dose at 2 hrs by HPLC analysis relative to total radioactivity; format: ADME, organism-based; settings: in vivo
# Homo sapiens [19] = assay: Tmax in healthy human assessed as total radioactivity at 800 ug, po as single dose by LC-MS/MS analysis; format: ADME, organism-based; settings: in vivo
# [20] = Drug recovery in healthy human feces assessed as total radioactivity at 800 ug, po as single dose after 168 hrs postdose by liquid scintillation counting; format: ADME, organism-based; settings: in vivo
# [21] = AUC (0 to 12 hrs) in healthy human at 800 ug, po as single dose by LC-MS/MS analysis; format: ADME, organism-based; design: dose 800 ug, time < 12 hr, route oral; settings: plasma
# [22] = Drug recovery in healthy human feces at 800 ug, po as single dose after 168 hrs postdose by liquid scintillation counting; format: ADME, organism-based; settings: in vivo
# [23] = Drug recovery in healthy human urine at 800 ug, po as single dose after 168 hrs postdose by liquid scintillation counting; format: ADME, organism-based; settings: in vivo
# [24] = Tmax in healthy human at 800 ug, po as single dose by LC-MS/MS analysis; format: ADME, organism-based; settings: in vivo
# [25] = Cmax in healthy human at 800 ug, po as single dose by LC-MS/MS analysis; format: ADME, organism-based; design: dose 800 ug, route oral; settings: in vivo
smiles,measurement,setting,value
CCc1cc2c(cc1CC)CC(NC[C@H](O)c1ccc(O[C@@H]3O[C@H](C(=O)O)[C@@H](O)[C@H](O)[C@H]3O)c3[nH]c(=O)ccc13)C2,Drug recovery,[1],0.53%
same,AUC,Serum [2],0.6 ng.Eq.hr/ml
same,Drug recovery,[3],0%
same,Drug uptake,Serum [4],0.1 ngequiv/ml
same,Drug uptake,Serum [5],7.42%
same,Drug uptake,Serum [6],4.22%
CCc1cc2c(cc1CC)CC(N(C[C@H](O)c1ccc(O)c3[nH]c(=O)ccc13)[C@@H]1O[C@H](C(=O)O)[C@@H](O)[C@H](O)[C@H]1O)C2,Drug metabolism,Serum [7],metabolite_detected
CCc1cc2c(cc1CC)CC(NCC(=O)O)C2,Drug recovery,[1],0.97%
same,Drug recovery,[3],0%
same,Drug metabolism,Serum [7],metabolite_detected
CCc1cc2c(cc1CC)CC(N)C2,Drug recovery,[1],0%
same,Drug recovery,[3],1.7%
same,Drug recovery,[8],<= 6%
same,Drug metabolism,Serum [7],metabolite_detected
CCc1cc2c(cc1[14CH2]C)CC(NC[C@H](O)c1ccc(O)c3[nH]c(=O)ccc13)C2 (stereo partly drawn),Cmax,Homo sapiens [9],1.4 ng.Eq/ml
same,Drug uptake,Serum [10],32.5%
same,Drug metabolism,Serum [11],metabolite_detected
same,Drug uptake,Serum [12],0.42 ngequiv/ml
same,AUC,Serum [13],4.58 ng.Eq.hr/ml
same,Drug metabolism,Serum [14],metabolite_detected
same,Drug metabolism,Serum [15],metabolite_detected
same,AUClast,Homo sapiens [16],27.2 ng.Eq.hr/ml
same,Drug recovery,[17],9.7%
same,Drug uptake,Serum [18],31.4%
same,Tmax,Homo sapiens [19],2.5 h
same,Drug recovery,[20],85.3%
CCc1cc2c(cc1C(C)O)CC(NC[C@H](O)c1ccc(O[C@@H]3O[C@H](C(=O)O)[C@@H](O)[C@H](O)[C@H]3O)c3[nH]c(=O)ccc13)C2 (stereo partly drawn),Drug recovery,[1],0.83%
same,AUC,Serum [2],0.82 ng.Eq.hr/ml
same,Drug recovery,[3],0%
same,Drug uptake,Serum [4],0.12 ngequiv/ml
same,Drug uptake,Serum [5],9.31%
same,Drug uptake,Serum [6],5.78%
CCc1cc2c(cc1C(C)O)CC(NC[C@H](O)c1ccc(O)c3[nH]c(=O)ccc13)C2 (stereo in doubt; P26.9),Drug recovery,[1],1.24%
same,AUC,Serum [2],1.8 ng.Eq.hr/ml
same,Drug recovery,[3],17.44%
same,Drug uptake,Serum [4],0.18 ngequiv/ml
same,Drug uptake,Serum [5],13.2%
same,Drug recovery,[8],17%
same,Drug uptake,Serum [6],12.4%
CCc1cc2c(cc1C(C)O)CC(NC[C@H](O)c1ccc(O)c3[nH]c(=O)ccc13)C2 (stereo in doubt; P30.3),Drug recovery,[1],0.31%
same,Drug recovery,[3],6.33%
same,Drug recovery,[8],<= 6%
CCc1cc2c(cc1CC)CC(NC[C@H](O)c1ccc(O)c3[nH]c(=O)ccc13)C2.O=C(O)/C=C\C(=O)O [INDACATEROL MALEATE],AUC(0-t) at 12 h,[21],1.81 ng·h/mL
same,Drug recovery,[22],54.42%
same,Drug recovery,[23],0.34%
same,Tmax,[24],1.75 h
same,Drug recovery,[8],54%
same,Cmax,[25],0.47 ng/mL
